# Data as given in patent US8575158B2, “1-phenyl-substituted heterocyclyl derivatives and their use as prostaglandin D2 receptor modulators” (Actelion Pharmaceuticals Ltd., priority 2010, dated 2013).
# pIC50: −log10 of the molar value.
# Target: T1, hCRTH2 receptor (Homo sapiens, UniProt Q9Y5Y4)
# T1 construct: expressed in transfected cells; host or cells: HEK293
# T1 sequence (Q9Y5Y4 1-395): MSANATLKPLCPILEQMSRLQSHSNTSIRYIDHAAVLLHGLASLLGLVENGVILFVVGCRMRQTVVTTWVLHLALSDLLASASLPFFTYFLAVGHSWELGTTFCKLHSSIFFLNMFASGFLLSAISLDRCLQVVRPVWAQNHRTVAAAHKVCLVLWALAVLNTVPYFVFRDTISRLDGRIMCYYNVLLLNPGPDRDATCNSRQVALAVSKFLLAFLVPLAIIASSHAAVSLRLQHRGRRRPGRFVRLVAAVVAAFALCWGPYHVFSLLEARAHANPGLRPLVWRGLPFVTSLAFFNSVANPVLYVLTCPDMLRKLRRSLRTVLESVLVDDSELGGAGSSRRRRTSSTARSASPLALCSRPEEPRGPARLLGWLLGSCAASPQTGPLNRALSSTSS
# Test: Radioligand displacement assay (3H-PGD2) on hCRTH2 receptor membranes
# Type: binding
# Conditions: antagonistic activity, 3H-PGD2 radioligand displacement, HEK293-hCRTH2 membranes
row,pIC50,Compound
1,7.33,Cc1ccccc1CCC(=O)N1CCc2cc(F)ccc2C1c1cc(Cl)ccc1OCC(=O)O (racemic) [Example 435]
2,8.24,O=C(O)COc1ccc(Cl)cc1C1c2ccc(F)cc2CCN1C(=O)CCCc1ccccc1F (racemic) [Example 436]
3,8.28,O=C(O)COc1ccc(Cl)cc1C1c2ccc(F)cc2CCN1C(=O)COCc1ccccc1Cl (racemic) [Example 437]
4,7.04,O=C(O)COc1ccc(Cl)cc1C1c2ccc(F)cc2CCN1C(=O)CCOc1ccc(F)cc1 (racemic) [Example 438]
5,6.42,CN(CC(=O)N1CCc2ccccc2C1c1cc(Cl)ccc1OCC(=O)O)c1ccccc1 (racemic) [Example 439]
6,7.25,O=C(O)COc1ccc(Cl)cc1C1c2ccccc2CCN1C(=O)CCCN1CCCC1=O (racemic) [Example 440]
7,7.90,O=C(O)COc1ccc(Cl)cc1C1c2ccccc2CCN1C(=O)CCN1CCc2ccccc21 (racemic) [Example 441]
8,6.46,O=C(O)COc1ccc(Cl)cc1C1c2ccccc2CCN1C(=O)CCN1C(=O)COc2ccc(Cl)cc21 (racemic) [Example 442]
9,6.07,O=C(O)COc1ccc(Cl)cc1C1c2ccccc2CCN1C(=O)CNc1ccccc1 (racemic) [Example 443]
10,6.18,O=C(O)COc1ccc(Cl)cc1C1c2ccccc2CCN1C(=O)CN1Cc2ccccc2C1 (racemic) [Example 444]
11,6.89,O=C(O)COc1ccc(Cl)cc1C1c2ccccc2CCN1C(=O)CCN1Cc2ccccc2C1=O (racemic) [Example 445]
12,6.76,Cc1cc2ccccc2n1CCC(=O)N1CCc2ccccc2C1c1cc(Cl)ccc1OCC(=O)O (racemic) [Example 446]
13,7.86,Cc1cn(CCC(=O)N2CCc3ccccc3C2c2cc(Cl)ccc2OCC(=O)O)c2ccccc12 (racemic) [Example 447]
14,7.45,O=C(O)COc1ccc(Cl)cc1C1c2ccccc2CCN1C(=O)CCn1ncc2ccccc21 (racemic) [Example 448]
15,7.58,O=C(O)COc1ccc(Cl)cc1C1c2ccccc2CCN1C(=O)CCN1CCCc2ccccc21 (racemic) [Example 449]
16,6.39,CC(C)COCCC(=O)N1CCc2ccccc2C1c1cc(Cl)ccc1OCC(=O)O (racemic) [Example 450]
17,7.19,O=C(O)COc1ccc(Cl)cc1C1c2ccccc2CCN1C(=O)CCn1cnc2ccccc21 (racemic) [Example 451]
18,6.30,Cc1csc(=O)n1CCC(=O)N1CCc2ccccc2C1c1cc(Cl)ccc1OCC(=O)O (racemic) [Example 452]
19,6.51,O=C(O)COc1ccc(Cl)cc1C1c2ccccc2CCN1C(=O)CCN1CCSC1=O (racemic) [Example 453]
20,7.16,Cc1ccc(CCC(=O)N2CCc3ccccc3C2c2cc(Cl)ccc2OCC(=O)O)c(C)c1 (racemic) [Example 454]
21,6.70,Cc1ccc(CCC(=O)N2CCc3ccccc3C2c2cc(Cl)ccc2OCC(=O)O)c(C)n1 (racemic) [Example 455]
22,7.36,Cc1ccc(OCC(=O)N2CCc3ccccc3C2c2cc(Cl)ccc2OCC(=O)O)c(C)c1 (racemic) [Example 456]

row,pIC50,Compound
1,7.22,Cc1c(CCC(=O)N2CCc3ccccc3C2c2cc(Cl)ccc2OCC(=O)O)c2ccccc2n1C (racemic) [Example 457]
2,7.32,COc1ccc2c(c1)c(CCC(=O)N1CCc3ccccc3C1c1cc(Cl)ccc1OCC(=O)O)cn2C (racemic) [Example 458]
3,6.80,COc1ccc2c(ccn2CCC(=O)N2CCc3ccccc3C2c2cc(Cl)ccc2OCC(=O)O)c1 (racemic) [Example 459]
4,7.92,O=C(O)COc1ccc(Cl)cc1C1c2ccccc2CCN1C(=O)CCc1c[nH]c2ccccc12 (racemic) [Example 463]
5,7.62,"CC1(C)CC1C(=O)N1CCc2ccccc2C1c1cc(Cl)ccc1OCC(=O)O (racemic) [Example 466, (±)-{4-Chloro-2-[2-(2,2-dimethyl-cyclopropanecarbonyl)-1,2,3,4-tetrahydro-isoquinolin-1-yl]-phenoxy}-acetic acid]"
6,6.40,"Cc1nc(C)c(C2CC2C(=O)N2CCc3ccccc3C2c2cc(Cl)ccc2OCC(=O)O)s1 (racemic) [Example 467, (±)-(4-Chloro-2-{2-[2-(2,4-dimethyl-thiazol-5-yl)-cyclopropanecarbonyl]-1,2,3,4-tetrahydro-isoquinolin-1-yl}-phenoxy)-acetic acid]"
7,6.12,Cc1ccc(OCC(=O)N2CCc3ccccc3C2c2cc(Cl)ccc2OCC(=O)O)cn1 (racemic) [Example 468]
8,6.88,Cc1ncccc1OCC(=O)N1CCc2ccccc2C1c1cc(Cl)ccc1OCC(=O)O (racemic) [Example 469]
9,6.82,O=C(O)COc1ccc(Cl)cc1C1c2ccccc2CCN1C(=O)COc1cncc(Cl)c1 (racemic) [Example 470]
10,7.06,O=C(O)COc1ccc(Cl)cc1C1c2ccccc2CCN1C(=O)COc1cccnc1Cl (racemic) [Example 471]
11,6.96,O=C(O)COc1ccc(Cl)cc1C1c2ccccc2CCN1C(=O)COc1ccc(Cl)nc1 (racemic) [Example 472]
12,6.19,O=C(O)COc1ccc(Cl)cc1C1c2ccccc2CCN1C(=O)COc1cc(Cl)nc(Cl)c1 (racemic) [Example 473]
13,6.70,Cc1cncc(OCC(=O)N2CCc3ccccc3C2c2cc(Cl)ccc2OCC(=O)O)c1 (racemic) [Example 474]
14,6.47,O=C(O)COc1ccc(Cl)cc1C1c2ccccc2CCN1C(=O)COc1cccnc1OCCO (racemic) [Example 475]
15,6.79,COc1ccc(OCC(=O)N2CCc3ccccc3C2c2cc(Cl)ccc2OCC(=O)O)c(OC)n1 (racemic) [Example 476]
16,6.54,COc1cncc(OCC(=O)N2CCc3ccccc3C2c2cc(Cl)ccc2OCC(=O)O)c1 (racemic) [Example 477]
17,6.63,O=C(O)COc1ccc(Cl)cc1C1c2ccccc2CCN1C(=O)COc1cncc(F)c1 (racemic) [Example 478]
18,6.70,NC(=O)c1ncccc1OCC(=O)N1CCc2ccccc2C1c1cc(Cl)ccc1OCC(=O)O (racemic) [Example 479]
19,6.98,N#Cc1ncccc1OCC(=O)N1CCc2ccccc2C1c1cc(Cl)ccc1OCC(=O)O (racemic) [Example 480]
20,6.84,O=C(O)COc1ccc(Cl)cc1C1c2ccccc2CCN1C(=O)COc1ccc(C(F)(F)F)nc1 (racemic) [Example 481]
21,6.70,O=C(O)COc1ccc(Cl)cc1C1c2ccccc2CCN1C(=O)COc1cccnc1F (racemic) [Example 482]
22,6.33,Cn1cnc2cc(OCC(=O)N3CCc4ccccc4C3c3cc(Cl)ccc3OCC(=O)O)cnc21 (racemic) [Example 483]

row,pIC50,Compound
1,6.79,COc1ncc(C)cc1OCC(=O)N1CCc2ccccc2C1c1cc(Cl)ccc1OCC(=O)O (racemic) [Example 484]
2,6.50,COc1cc(OCC(=O)N2CCc3ccccc3C2c2cc(Cl)ccc2OCC(=O)O)cnc1OC (racemic) [Example 485]
3,6.43,COc1ccc(OCC(=O)N2CCc3ccccc3C2c2cc(Cl)ccc2OCC(=O)O)cn1 (racemic) [Example 486]
4,6.40,O=C(O)COc1ccc(Cl)cc1C1c2ccccc2CCN1C(=O)COc1cnccc1Cl (racemic) [Example 487]
5,6.97,Cc1cn(CC(=O)N2CCc3ccccc3C2c2cc(Cl)ccc2OCC(=O)O)c2ccccc12 (racemic) [Example 488]
6,6.50,COc1ccc2c(ccn2CC(=O)N2CCc3ccccc3C2c2cc(Cl)ccc2OCC(=O)O)c1 (racemic) [Example 489]
7,7.82,O=C(O)COc1ccc(Cl)cc1C1c2ccccc2CCN1C(=O)NCc1ccccc1Cl (racemic) [Example 490]
8,7.70,O=C(O)COc1ccc(Cl)cc1C1c2ccccc2CCN1C(=O)NCc1cccc(F)c1 (racemic) [Example 491]
9,7.78,O=C(O)COc1ccc(Cl)cc1C1c2ccccc2CCN1C(=O)NCc1ccccc1 (racemic) [Example 492]
10,7.65,O=C(O)COc1ccc(Cl)cc1C1c2ccccc2CCN1C(=O)NCCc1ccccc1 (racemic) [Example 493]
11,7.77,O=C(O)COc1ccc(Cl)cc1C1c2ccccc2CCN1C(=O)NCc1ccc(F)cc1 (racemic) [Example 494]
12,7.62,O=C(O)COc1ccc(Cl)cc1C1c2ccccc2CCN1C(=O)NCc1ccccc1F (racemic) [Example 495]
13,7.20,CCCCNC(=O)N1CCc2ccccc2C1c1cc(Cl)ccc1OCC(=O)O (racemic) [Example 496]
14,6.10,O=C(O)COc1ccc(F)cc1C1c2cc(-c3ccc(F)cc3)ccc2CCN1C(=O)OCc1ccccc1 (racemic) [Example 497]
15,6.42,O=C(O)COc1ccc(F)cc1C1c2cc(-c3cncnc3)ccc2CCN1C(=O)OCc1ccccc1 (racemic) [Example 498]
16,7.60,O=C(O)COc1ccc(F)cc1C1c2ccccc2CN1C(=O)OCc1ccccc1 (racemic) [Example 499]
17,7.89,O=C(O)COc1ccc(Cl)cc1C1c2ccc(F)cc2CN1C(=O)OCc1ccccc1 (racemic) [Example 500]
18,8.09,O=C(O)COc1ccc(Cl)cc1C1c2cccc(F)c2CN1C(=O)OCc1ccccc1 (racemic) [Example 501]
19,7.25,COc1ccccc1OCC(=O)N1Cc2ccccc2C1c1cc(Cl)ccc1OCC(=O)O (racemic) [Example 502]
20,7.48,O=C(O)COc1ccc(Cl)cc1C1c2ccccc2CN1C(=O)COc1ccc(F)cc1 (racemic) [Example 504]
21,6.72,O=C(O)COc1ccc(Cl)cc1C1c2ccccc2CN1C(=O)CCc1cccnc1 (racemic) [Example 505]
